From patent US20220127576A1, “COMPOSITIONS AND METHODS FOR STEM CELL THERAPY” (Arizona Board of Regents on Behalf of the University of …, priority 2019, published 2022)
Entries after “also recorded” stand apart in the source; their conditions may differ.

Tests used:
[1] = ISO dose of 50 ng/kg/min, literature; cited from earlier work
[2] = system: lymphocytes, lymphocyte subtypes and CD34+ HSCs in whole blood; assay: Lymphocyte subtypes and CD34+ HSCs in whole blood at rest and during ISO infusion before and after G-CSF treatment; type: in vivo, human; conditions: for Absolute number of B cells in whole blood / Absolute number of CD3+ T cells in whole blood / Absolute number of CD4+ T cells in whole blood / Absolute number of CD8+ T cells in whole blood / Absolute number of CD34+ HSCs in whole blood / Absolute number of CM CD4+ T cells in whole blood / Absolute number of CM CD8+ T cells in whole blood / Absolute number of EM CD4+ T cells in whole blood / Absolute number of EM CD8+ T cells in whole blood / Absolute number of EMRA CD4+ T cells in whole blood / Absolute number of EMRA CD8+ T cells in whole blood / Absolute number of NK cells in whole blood / Absolute number of Naïve CD4+ T cells in whole blood / Absolute number of Naïve CD8+ T cells in whole blood / Absolute number of lymphocytes (Lymph.) in whole blood / Absolute number of αβ T cells in whole blood / Absolute number of γδ T cells in whole blood: mean, n = 3
[3] = system: lymphocytes, lymphocyte subtypes and CD34+ HSCs in whole blood; assay: as above; type: in vivo, human
From the text: Values are the mean (n=7; 3 females).
This graft phenotype is predictive of improved clinical outcomes post alloHSCT, including lower incidence/severity of GvHD and viral infections, better engraftment and a lower incidence of relapse (Table 1).

[4] = Heart rate, blood pressure and tolerance during ISO infusion; type: in vivo, human; conditions: ISO 50 ng/kg/min, before and after 5-days G-CSF (5 mcg/kg/day); n=3
From the text: Research Design: Scientific Rigor is maintained through the use of a randomized, complete cross-over, double blind placebo controlled experimental design (above table). This design allows participants to act as their own controls, thus minimizing variability and the impact of potential between-subject confounders. Healthy volunteers report to the lab on six separate occasions at the same time of day. During Visit 1, they undergo an extensive screening procedure to ensure that they meet the study inclusion/exclusion criteria. A blood sample is drawn to determine CMV serostatus (positive or negative) and MR haplotype (A or B), which is included as co-variates in the analysis. Participants then complete six trials on separate days (Visit 2-7) with 7-days interspersed between each trial. During each of these visits, subjects are infused with 50 ng/kg/min of ISO (5 visits) or saline (1 visit) for 30-minutes. Blood samples are drawn before and during the last 10-minutes of the 30-minute infusion protocol. Participants are given orally administered drugs or placebo as a single dose within a few hours prior to ISO infusion. Participants are assigned to trial order using a block randomization scheme with random block sizes of between 2 and 4 subjects to obtain a balanced sample of 8 subjects per trial sequence order (see Statistical Power and Analysis section below). The randomization list is used to create sealed envelopes that are opened to determine assignment to drug order group after visit 1, with the trial order blinded to both the investigators and the participants.

[5] = system: leukemia and multiple myeloma target cells; assay: In vitro anti-tumor (cytotoxic) activity of mobilized PBHC grafts; type: cell-based, human; conditions: compared to rest / G-CSF only
From the text: Moreover, cytotoxic activity against leukemia and multiple myeloma target cells in vitro was 2-fold greater in the G-CSF+ISO PBHC grafts compared to G-CSF alone. […] Accordingly, in some embodiments, provided herein are compositions and methods for mobilizing stem cells with enhanced properties for use in allogenic or autologous transfers.
(§1) This was largely explained by a shift in the composition of NK-cells and TCR-γδ cells. […] The effects of systemic β-AR activation on the mobilization and ex vivo expansion of VSTs and TCR-γδ cells were β2-AR mediated as the effects were diminished by administering nadolol but not bisoprolol prior to systemic β-AR activation (FIG. 6).

[6] = system: lymphocytes, lymphocyte subtypes and CD34+ HSCs in whole blood; conditions: ISO dose of 50 ng/kg/min, healthy subjects, literature; cited from earlier work
[7] = oral, literature; cited from earlier work
[8] = system: lymphocyte composition in blood; assay: β-AR antagonists / PDE-4 inhibitor given prior to systemic β-AR activation (dynamic exercise): lymphocyte composition and heart rate; type: in vivo, human; conditions: antagonist administered prior to systemic β-AR activation (dynamic exercise model)
Protocol: Baseline samples were collected before drug/placebo administration and again 3 h later (pre-exercise).
To determine the β-AR subtype involved, a selective β1-AR antagonist (bisoprolol) and non-selective β1+β2-AR antagonist (nadolol) were administered prior to systemic β-AR activation (using dynamic exercise as an experimental model).

[9] = system: VSTs specific to CMV, EBV and adenovirus antigens; assay: Mobilization of viral-specific T-cells (IFN-γ ELISpot and IFN-γ capture assays) with systemic β-AR activation; type: in vivo, human; conditions: healthy humans (n=11)
From the text: Difference from the resting condition indicated by *, p<0.05. Difference from the placebo and bisoprolol trials indicated by #, p<0.05.

[10] = system: VSTs and TCR-γδ cells; assay: Mobilization and ex vivo expansion of VSTs and TCR-γδ cells after systemic β-AR activation; type: cell-based, human; conditions: antagonist administered prior to systemic β-AR activation
From the text: as §1

[11] = ISO infusion 50 ng/kg/min, before and after 5-days G-CSF (5 mcg/kg/day), n=7
[12] = Post G-CSF, during ISO infusion
[13] = after G-CSF mobilization, healthy volunteers

## CC(C)NCC(O)c1ccc(O)c(O)c1 (centres unmarked) [ISO, isoproterenol]
[1]
  safety for infusing healthy subjects: safe
[2]; [11]
  composition of NK-cells and TCR-γδ cells among total blood lymphocytes: markedly increases
[2]; [12]
  Absolute number of B cells in whole blood: 392 cells/ul
  Absolute number of CD3+ T cells in whole blood: 2933 cells/ul
  Absolute number of CD4+ T cells in whole blood: 1835 cells/ul
  Absolute number of CD8+ T cells in whole blood: 795 cells/ul
  Absolute number of CD34+ HSCs in whole blood: 92 cells/ul
  Absolute number of CM CD4+ T cells in whole blood: 298 cells/ul
  Absolute number of CM CD8+ T cells in whole blood: 41 cells/ul
  Absolute number of EM CD4+ T cells in whole blood: 429 cells/ul
  Absolute number of EM CD8+ T cells in whole blood: 342 cells/ul
  Absolute number of EMRA CD4+ T cells in whole blood: 220 cells/ul
  Absolute number of EMRA CD8+ T cells in whole blood: 184 cells/ul
  Absolute number of NK cells in whole blood: 2068 cells/ul
  Absolute number of Naïve CD4+ T cells in whole blood: 886 cells/ul
  Absolute number of Naïve CD8+ T cells in whole blood: 227 cells/ul
  Absolute number of lymphocytes (Lymph.) in whole blood: 6730 cells/ul
  Absolute number of αβ T cells in whole blood: 2253 cells/ul
  Absolute number of γδ T cells in whole blood: 214 cells/ul
[2]; Pre G-CSF, during ISO infusion
  Absolute number of B cells in whole blood: 100 cells/ul
  Absolute number of CD3+ T cells in whole blood: 924 cells/ul
  Absolute number of CD4+ T cells in whole blood: 489 cells/ul
  Absolute number of CD8+ T cells in whole blood: 329 cells/ul
  Absolute number of CD34+ HSCs in whole blood: 6 cells/ul
  Absolute number of CM CD4+ T cells in whole blood: 137 cells/ul
  Absolute number of CM CD8+ T cells in whole blood: 34 cells/ul
  Absolute number of EM CD4+ T cells in whole blood: 80 cells/ul
  Absolute number of EM CD8+ T cells in whole blood: 114 cells/ul
  Absolute number of EMRA CD4+ T cells in whole blood: 13 cells/ul
  Absolute number of EMRA CD8+ T cells in whole blood: 81 cells/ul
  Absolute number of NK cells in whole blood: 778 cells/ul
  Absolute number of Naïve CD4+ T cells in whole blood: 257 cells/ul
  Absolute number of Naïve CD8+ T cells in whole blood: 99 cells/ul
  Absolute number of lymphocytes (Lymph.) in whole blood: 2043 cells/ul
  Absolute number of αβ T cells in whole blood: 830 cells/ul
  Absolute number of γδ T cells in whole blood: 91 cells/ul
[2]; [13]
  ratio of 'favorable' to 'unfavorable' lymphocyte subtypes in peripheral blood: alters
[3]; [11]
  composition of CD4+ TCR-αβ cells and B-cells among total blood lymphocytes: lowers
[3]; [13]
  numbers of CD34 HSCs in peripheral blood / graft: increases; also recorded: without compromising
[4]
  systolic hypertension: ~30 mmHg
  tachycardia: ~50 bpm
  tolerance to ISO infusion: excellent tolerance
[5]
  in vitro anti-tumor activity of G-CSF mobilized PBHC grafts: increases
[6]
  mobilization of lymphocytes to the circulation: robust mobilization

## O=C(Nc1c(Cl)cncc1Cl)c1ccc(OC(F)F)c(OCC2CC2)c1 [roflumilast]
[7]
  half-life: 15 to 18 h

## CC(C)NCC(O)COc1ccc(COCCOC(C)C)cc1 (centres unmarked) [bisoprolol]
[8]
  effects of systemic β-AR activation on graft composition shifts: remained favorably altered
[7]
  half-life: 10 to 12 h
[9]
  effects of systemic β-AR activation on the mobilization of VSTs: not

## CC(C)(C)NCC(O)COc1cccc2c1CC(O)C(O)C2 (centres unmarked) [nadolol]
[10]
  effects of systemic β-AR activation on the mobilization and ex vivo expansion of VSTs and TCR-γδ cells: diminished
[8]
  effects of systemic β-AR activation on graft composition shifts: not
[8]; listed as Nadolol
  effects of systemic β-AR activation on graft composition shifts: abrogated
[7]
  half-life: 14 to 24 h
[9]
  effects of systemic β-AR activation on the mobilization of VSTs: inhibits; also recorded: blocked

## COc1ccccc1OCCNCC(O)COc1cccc2[nH]c3ccccc3c12 (centres unmarked) [carvedilol]
[7]
  half-life: 7 to 10 h

B1: G-CSF: stem cell mobilization agent; filgrastim (G-CSF), 5 mcg/kg/day for 5 days (protein, chains of the INN, looked up)
chain: MTPLGPASSLPQSFLLKCLEQVRKIQGDGAALQEKLCATYKLCHPEELVLLGHSLGIPWAPLSSCPSQALQLAGCLSQLHSGLFLYQGLLQALEGISPELGPTLDTLQLDVADFATTIWQQMEELGMAPALQPTQGAMPAFASAFQRRAGGVLVASHLQSFLEVSYRVLRHLAQP
[2]; Post G-CSF, Rest
  Absolute number of B cells in whole blood: 456 cells/ul
  Absolute number of CD3+ T cells in whole blood: 2755 cells/ul
  Absolute number of CD4+ T cells in whole blood: 1749 cells/ul
  Absolute number of CD8+ T cells in whole blood: 786 cells/ul
  Absolute number of CD34+ HSCs in whole blood: 110 cells/ul
  Absolute number of CM CD4+ T cells in whole blood: 268 cells/ul
  Absolute number of CM CD8+ T cells in whole blood: 47 cells/ul
  Absolute number of EM CD4+ T cells in whole blood: 405 cells/ul
  Absolute number of EM CD8+ T cells in whole blood: 284 cells/ul
  Absolute number of EMRA CD4+ T cells in whole blood: 216 cells/ul
  Absolute number of EMRA CD8+ T cells in whole blood: 154 cells/ul
  Absolute number of NK cells in whole blood: 1158 cells/ul
  Absolute number of Naïve CD4+ T cells in whole blood: 860 cells/ul
  Absolute number of Naïve CD8+ T cells in whole blood: 302 cells/ul
  Absolute number of lymphocytes (Lymph.) in whole blood: 5866 cells/ul
  Absolute number of αβ T cells in whole blood: 2661 cells/ul
  Absolute number of γδ T cells in whole blood: 93 cells/ul
